Source: patent US20260232767A1, “INTERLEUKIN-23 RECEPTOR ANTAGONIST PEPTIDES FOR USE IN THE TREATMENT OF PSORIASIS” (Janssen Pharmaceutica NV, priority 2023, published 2026)

Test system: subjects with moderate-to-severe plaque psoriasis
Assay: PASI response, Example 1 16-week dose-ranging study
Type: in vivo, human
Details: for PASI 100% Improvement, subjects / PASI ≥75% Improvement, subjects / PASI ≥90% Improvement, subjects: Combined doses
Description: The Psoriasis Area and Severity Index (PASI) is a system used for assessing and grading the severity of psoriatic lesions and their response to therapy. In the PASI system, the body is divided into four regions: the head, trunk, upper extremities, and lower extremities. Each of these areas is assessed and scored separately for erythema, induration, and scaling, which are each rated on a scale of 0 to 4 and extent of involvement on a scale of 0 to 6. The PASI produces a numeric score (a “PASI score”) that can range from 0 to 72. A higher score indicates more severe disease.
This was a randomized, double-blind, placebo-controlled, dose-ranging, parallel group, multicenter, interventional study in subjects with moderate-to-severe plaque psoriasis. A target of 240 subjects were enrolled in this study with 40 subjects planned per intervention group.
Clinician-reported outcomes including Psoriasis Area and Severity Index (PASI), Body Surface Area (BSA), Investigator's Global Assessment (IGA), Nail Psoriasis Area and Severity Index (NAPSI), Fingernail Physician's Global Assessment (f-PGA), Static Physician's Global Assessment of Genitalia (s-PGA-G), Physician's Global Assessment of Hands and/or Feet (hf-PGA), and Scalp Specific Investigator Global Assessment (ss-IGA) were obtained at Week 0, 8, and 16. PASI and IGA were also obtained at Weeks 1, 2, 4, and 12, and at Week 20, four weeks after the administration of the tablets has stopped.
The primary efficacy endpoint was the proportion of participants achieving a PASI 75 response at Week 16, defined as at least a 75% reduction from baseline in PASI total score.
For the primary analysis, composite strategy (non-responder imputation) was applied to address intercurrent event #1 (Discontinuation of study intervention due to lack of efficacy or due to an AE of worsening of psoriasis) and #2 (initiation of a protocol-prohibited medication or therapy that could improve psoriasis); and treatment policy strategy (observed data) was applied to intercurrent event #3 (Discontinuation of study intervention due to other reasons). Participants with missing data after application of ICEs are also considered as non-responders.
In addition to the response analysis, pairwise comparisons of each treatment group versus the placebo group were performed for the primary endpoint of PASI 75 at Week 16. Pairwise comparisons were not adjusted for multiplicity. The Cochran-Mantel-Haenszel chi-square statistic stratified by baseline weight category (≤90 kg, >90 kg) at a 2-sided significance level of 0.05 was used (Table 2).

[1] = Week 16, trough plasma conc Q2 to <Q3
[2] = Week 16, trough plasma conc ≥Q3
[3] = Week 16, 25 mg BID, intermediate plasma concentration quartile <Q1, N=1
[4] = Week 16, 25 mg BID, intermediate plasma concentration quartile Q1 to <Q2, N=1
[5] = Week 16, 25 mg BID, intermediate plasma concentration quartile Q2 to <Q3, N=1
[6] = Week 16, 25 mg BID, intermediate plasma concentration quartile ≥Q3, N=1
[7] = Week 16, 25 mg QD, intermediate plasma concentration quartile Q1 to <Q2, N=1
[8] = Week 16, 25 mg QD, intermediate plasma concentration quartile Q2 to <Q3, N=1
[9] = Week 16, 25 mg QD, intermediate plasma concentration quartile ≥Q3, N=1
[10] = Week 16, 50 mg QD, intermediate plasma concentration quartile <Q1, N=1
[11] = Week 16, 50 mg QD, intermediate plasma concentration quartile Q1 to <Q2, N=1
[12] = Week 16, 50 mg QD, intermediate plasma concentration quartile Q2 to <Q3, N=1
[13] = Week 16, 50 mg QD, intermediate plasma concentration quartile ≥Q3, N=2
[14] = Week 16, 100 mg BID, intermediate plasma concentration quartile <Q1, N=1
[15] = Week 16, 100 mg BID, intermediate plasma concentration quartile Q1 to <Q2, N=1
[16] = Week 16, 100 mg BID, intermediate plasma concentration quartile Q2 to <Q3, N=1
[17] = Week 16, 100 mg BID, intermediate plasma concentration quartile ≥Q3, N=2
[18] = Week 16, 100 mg QD, intermediate plasma concentration quartile <Q1, N=1
[19] = Week 16, 100 mg QD, intermediate plasma concentration quartile Q1 to <Q2, N=1
[20] = Week 16, 100 mg QD, intermediate plasma concentration quartile Q2 to <Q3, N=1
[21] = Week 16, 100 mg QD, intermediate plasma concentration quartile ≥Q3, N=1
[22] = Week 16, Combined regimens, intermediate plasma concentration quartile <Q1, N=5
[23] = Week 16, Combined regimens, intermediate plasma concentration quartile Q1 to <Q2, N=5
[24] = Week 16, Combined regimens, intermediate plasma concentration quartile Q2 to <Q3, N=5
[25] = Week 16, Combined regimens, intermediate plasma concentration quartile ≥Q3, N=6

CC(=O)NCCCC[C@@H]1NC(=O)[C@H](Cc2c[nH]c3c(C)cccc23)NC(=O)[C@H]([C@@H](C)O)NC(=O)[C@H](CC(N)=O)NC(=O)[C@@H](NC(C)=O)C(C)(C)SSC(C)(C)[C@@H](C(=O)N[C@@H](Cc2ccc(OCCN)cc2)C(=O)N[C@@H](Cc2ccc3ccccc3c2)C(=O)NC2(C(=O)N[C@@H](CCC(=O)O)C(=O)N[C@@H](CC(N)=O)C(=O)N[C@@H](Cc3cccnc3)C(=O)N(C)CC(N)=O)CCOCC2)NC1=O [IL-23 receptor antagonist peptide, Ac-[Pen]*-N-T-[W(7-Me)]-[Lys(Ac)]-[Pen]*-Phe[4-(2-aminoethoxy)]-[2-Nal]-[THP]-E-N-[3-Pal]-Sarc-NH2 (*[Pen]-[Pen]* formdisulfidebond)]
3 (50.0%): PASI 100% Improvement, subjects n (%) [25]
2 (40.0%): PASI 100% Improvement, subjects n (%) [23] | PASI ≥90% Improvement, subjects n (%) [23]
14 (53.8%): PASI ≥75% Improvement, subjects [1]
22 (81.5%): PASI ≥75% Improvement, subjects [2]
1 (50.0%): PASI ≥75% Improvement, subjects n (%) [13] | PASI ≥90% Improvement, subjects n (%) [13]
1 (20.0%): PASI 100% Improvement, subjects n (%) [24] | PASI ≥90% Improvement, subjects n (%) [24]
15 (55.6%): PASI ≥90% Improvement, subjects [2]
5 (83.3%): PASI ≥90% Improvement, subjects n (%) [25]
6 (100.0%): PASI ≥75% Improvement, subjects n (%) [25]
2 (100.0%): PASI 100% Improvement, subjects n (%) [17] | PASI ≥75% Improvement, subjects n (%) [17] | PASI ≥90% Improvement, subjects n (%) [17]
0: PASI 100% Improvement, subjects n (%) [3] | PASI ≥75% Improvement, subjects n (%) [3] | PASI ≥90% Improvement, subjects n (%) [3] | PASI 100% Improvement, subjects n (%) [4] | PASI ≥90% Improvement, subjects n (%) [4] | PASI 100% Improvement, subjects n (%) [5] | PASI ≥75% Improvement, subjects n (%) [5] | PASI ≥90% Improvement, subjects n (%) [5] | PASI 100% Improvement, subjects n (%) [6] | PASI 100% Improvement, subjects n (%) [7] | PASI ≥75% Improvement, subjects n (%) [7] | PASI ≥90% Improvement, subjects n (%) [7] | PASI 100% Improvement, subjects n (%) [9] | PASI ≥75% Improvement, subjects n (%) [9] | PASI ≥90% Improvement, subjects n (%) [9] | PASI 100% Improvement, subjects n (%) [10] | PASI ≥90% Improvement, subjects n (%) [10] | PASI 100% Improvement, subjects n (%) [13] | PASI 100% Improvement, subjects n (%) [16] | PASI ≥90% Improvement, subjects n (%) [16] | PASI 100% Improvement, subjects n (%) [20] | PASI ≥90% Improvement, subjects n (%) [20] | PASI 100% Improvement, subjects n (%) [21]
3 (60.0%): PASI 100% Improvement, subjects n (%) [22] | PASI ≥90% Improvement, subjects n (%) [22] | PASI ≥75% Improvement, subjects n (%) [23] | PASI ≥75% Improvement, subjects n (%) [24]
significantly greater improvement: Improvement (reduction) in PASI total score from baseline (each dose group vs placebo, Week 16)
1 (100.0%): PASI ≥75% Improvement, subjects n (%) [4] | PASI ≥75% Improvement, subjects n (%) [6] | PASI ≥90% Improvement, subjects n (%) [6] | PASI 100% Improvement, subjects n (%) [8] | PASI ≥75% Improvement, subjects n (%) [8] | PASI ≥90% Improvement, subjects n (%) [8] | PASI ≥75% Improvement, subjects n (%) [10] | PASI 100% Improvement, subjects n (%) [11] | PASI ≥75% Improvement, subjects n (%) [11] | PASI ≥90% Improvement, subjects n (%) [11] | PASI 100% Improvement, subjects n (%) [12] | PASI ≥75% Improvement, subjects n (%) [12] | PASI ≥90% Improvement, subjects n (%) [12] | PASI 100% Improvement, subjects n (%) [14] | PASI ≥75% Improvement, subjects n (%) [14] | PASI ≥90% Improvement, subjects n (%) [14] | PASI 100% Improvement, subjects n (%) [15] | PASI ≥75% Improvement, subjects n (%) [15] | PASI ≥90% Improvement, subjects n (%) [15] | PASI ≥75% Improvement, subjects n (%) [16] | PASI 100% Improvement, subjects n (%) [18] | PASI ≥75% Improvement, subjects n (%) [18] | PASI ≥90% Improvement, subjects n (%) [18] | PASI 100% Improvement, subjects n (%) [19] | PASI ≥75% Improvement, subjects n (%) [19] | PASI ≥90% Improvement, subjects n (%) [19] | PASI ≥75% Improvement, subjects n (%) [20] | PASI ≥75% Improvement, subjects n (%) [21]
4 (80.0%): PASI ≥75% Improvement, subjects n (%) [22]
4 (15.4%): PASI 100% Improvement, subjects [1]
0): PASI ≥90% Improvement, subjects n (%) [21]
11 (42.3%): PASI ≥90% Improvement, subjects [1]
9 (33.3%): PASI 100% Improvement, subjects [2]
